The target of series [1] is T1, Corticotropin-releasing factor receptor 2/Corticotropin-releasing factor-binding protein (Homo sapiens, UniProt P24387+Q13324).
T1 sequence (Q13324 whole entry): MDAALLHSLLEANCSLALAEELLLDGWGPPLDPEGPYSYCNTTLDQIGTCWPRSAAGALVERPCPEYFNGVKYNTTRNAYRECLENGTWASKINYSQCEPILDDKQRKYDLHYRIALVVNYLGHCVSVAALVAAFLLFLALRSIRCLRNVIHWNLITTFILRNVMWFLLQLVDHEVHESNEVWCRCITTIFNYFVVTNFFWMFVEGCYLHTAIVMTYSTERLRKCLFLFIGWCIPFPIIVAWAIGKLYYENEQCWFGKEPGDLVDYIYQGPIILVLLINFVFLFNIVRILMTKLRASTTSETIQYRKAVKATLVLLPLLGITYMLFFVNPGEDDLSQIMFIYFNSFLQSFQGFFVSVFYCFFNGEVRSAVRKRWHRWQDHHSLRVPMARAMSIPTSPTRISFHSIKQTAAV
T1 sequence (P24387 whole entry): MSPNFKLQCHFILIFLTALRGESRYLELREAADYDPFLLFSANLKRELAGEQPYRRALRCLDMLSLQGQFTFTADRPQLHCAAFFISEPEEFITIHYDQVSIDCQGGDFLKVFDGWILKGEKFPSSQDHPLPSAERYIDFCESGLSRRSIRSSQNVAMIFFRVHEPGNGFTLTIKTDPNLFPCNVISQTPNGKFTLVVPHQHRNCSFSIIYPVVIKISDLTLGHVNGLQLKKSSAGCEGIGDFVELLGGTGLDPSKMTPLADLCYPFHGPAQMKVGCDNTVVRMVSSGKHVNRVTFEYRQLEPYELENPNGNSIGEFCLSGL
The experiment in a line: Dose Response confirmation of uHTS hits for small molecule antagonists of the CRF-binding protein and CRF-R2 receptor complex. The following applies: read-out: IC50_Mean. It counts as functional.

Series [2] concerns the target T1, Corticotropin-releasing factor receptor 2/Corticotropin-releasing factor-binding protein. The series is described as follows: activators of CRF receptor 2 with binding protein – uHTS hits, confirmation (AID 602473). It counts as functional. The following applies: read-out: EC50_Mean.
A short description of series [3]: growth suppression of beta-catenin-knockout colon cells, dose response, cell-based, HCT116, human colon tumor (AID 1045).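 Also: HCT116 colon tumor cells with beta catenin knocked out; cells exposed to compound for 60 hours.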 It counts as functional.
Series [4] is described as follows: growth suppression of PTEN-null colon cells, dose response, cell-based, HCT116 PTEN knockout (AID 1047).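 Also: HCT116 colon tumor cells with PTEN knocked out; cells exposed to compound for 60 hours before readout; potency for loss of cell viability measured by luminescence.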 It counts as functional.
Series [5] has as its system P388/ADR. The series is described as follows: cells. It counts as functional. The note with it: Mus musculus.
The subject of series [6] is P388. The series is described as follows: cells. The note with it: Mus musculus. In kind it is functional.
The test system of series [7] is SN12K1. The series is described as follows: cells. In kind it is functional. The following applies: Homo sapiens.
Series [8] has as its system Streptococcus. The series is described as follows: Group A Streptococcus viability loss, dose response, counter-screen for streptokinase expression inhibitor project, luminescence, BacTiterGlo (AID 1915).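 Also: potency for reduction of bacterial viability or growth.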 It counts as functional, organism-based. The following applies: Streptococcus.
Series [9] can be described thus: inhibitors of intracellular T. cruzi replication, confirmation, NIH3T3 host cells, beta-gal luminescence (AID 2044).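 Also: intracellular parasites grown in NIH/3T3 mouse fibroblasts as host cells; luminescent beta-galactosidase reporter signal from transgenic T. cruzi replicating inside host cells; inhibitors lower the luminescence signal.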 It counts as functional, cell-based.
For series [10], the system named is Streptococcus sp. 'group A'. The series is described as follows: growth inhibition of control SK(-) GAS strain, dose response, counter-screen for streptokinase expression inhibitor project, luminescence, kanamycin, BacTiterGlo, confirmation (AID 1900). It counts as functional, organism-based. The note with it: Streptococcus sp. 'group A'. A general note: A counterscreen serves to expose hits that act by an unwanted route or on another target.

A short description of series [11]: cells. It counts as functional.
Series [12] is described as follows: Vero E6 cell cytotoxicity, dose response, cytotoxicity control for non-replicating M. tuberculosis project, secondary assay (AID 492998). In kind it is functional, VeroE6. The following applies: Vero C1008.
Series [13] in a line: THP-1 cell cytotoxicity, dose response, cytotoxicity control for non-replicating M. tuberculosis project (AID 489025). In kind it is functional.
Series [14] can be described thus: cytotoxicity toward NIH3T3 fibroblasts, dose response, counter-screen, cell-based, ATP luminescence, mouse fibroblasts (AID 2010).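 Also: cells exposed to compound for about 90 hours before reading.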 In kind it is functional. The note with it: NIH3T3.
The target in series [15] is Genome polyprotein (dengue virus type 2, UniProt P29990). The series is described as follows: Dengue-2 NS5 methyltransferase inhibitors, primary screen, biochemical, confirmation dose response (AID 588689). It counts as functional.
Series [16] addresses T2, Ubiquitin-conjugating enzyme E2 N (Homo sapiens, UniProt P61088).
T2 sequence (P61088 whole entry): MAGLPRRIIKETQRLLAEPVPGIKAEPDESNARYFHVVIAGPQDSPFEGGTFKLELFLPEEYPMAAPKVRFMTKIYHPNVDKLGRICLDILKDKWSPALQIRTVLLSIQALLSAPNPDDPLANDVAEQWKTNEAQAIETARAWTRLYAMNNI
In kind it is functional.

Series [17] in a line: Luminescence Cell-Based Dose Confirmation HTS to Identify Inhibitors of Platelet Dense Granule Release. [Related pubchem assays: 1663 (Primary HTS), 1678 (Summary of Project)]. It counts as functional.
Series [18] concerns the target Luciferin 4-monooxygenase (Photinus pyralis, UniProt P08659). The series is described as follows: firefly luciferase enzyme inhibitors, dose response, biochemical, luminescence (AID 1891).
The target in series [19] is Cytochrome P450 2C9 (Homo sapiens, UniProt P11712).
The nature of series [20]: Luminescence Cell-Based Dose Retest to Confirm Inhibitors of Cancer Stem Cells. [Related pubchem assays (depositor defined):AID2717, AID2721]. In kind it is functional, Homo sapiens. The following applies: Homo sapiens.
Series [21] has as its target T3, Cytochrome P450 1A2 (Homo sapiens, UniProt P05177).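 Also: PubChem cytochrome P450 panel assay, CYP1A2 panel member.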
T3 sequence (P05177 whole entry): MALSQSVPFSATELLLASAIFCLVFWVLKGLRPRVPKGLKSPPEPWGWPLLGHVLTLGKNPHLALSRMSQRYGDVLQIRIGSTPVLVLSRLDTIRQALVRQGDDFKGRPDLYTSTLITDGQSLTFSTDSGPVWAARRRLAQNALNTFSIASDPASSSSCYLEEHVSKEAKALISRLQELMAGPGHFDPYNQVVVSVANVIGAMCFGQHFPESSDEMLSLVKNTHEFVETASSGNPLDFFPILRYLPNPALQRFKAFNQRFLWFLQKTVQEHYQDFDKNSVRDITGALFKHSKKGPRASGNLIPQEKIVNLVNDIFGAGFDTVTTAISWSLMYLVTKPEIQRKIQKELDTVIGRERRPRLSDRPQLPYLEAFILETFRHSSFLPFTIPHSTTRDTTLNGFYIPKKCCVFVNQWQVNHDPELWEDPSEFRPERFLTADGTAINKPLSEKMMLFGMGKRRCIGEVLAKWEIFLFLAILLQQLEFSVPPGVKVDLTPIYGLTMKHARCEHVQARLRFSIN

Series [22] has as its target Cytochrome P450 2D6 (Homo sapiens, UniProt P10635).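 Also: CYP2D6 member of a cytochrome P450 panel assay.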

One may read the GI50 as the concentration giving 50% growth inhibition. As usually defined, the CC50 is the concentration giving 50% cytotoxicity. In general, AC50 refers to the midpoint of the concentration-response curve, whichever way the signal moves.

Activity calls are given as the source filed them. Bounds are passed on as bounds.

Cytochrome P450 2C9, sequence (P11712 whole entry): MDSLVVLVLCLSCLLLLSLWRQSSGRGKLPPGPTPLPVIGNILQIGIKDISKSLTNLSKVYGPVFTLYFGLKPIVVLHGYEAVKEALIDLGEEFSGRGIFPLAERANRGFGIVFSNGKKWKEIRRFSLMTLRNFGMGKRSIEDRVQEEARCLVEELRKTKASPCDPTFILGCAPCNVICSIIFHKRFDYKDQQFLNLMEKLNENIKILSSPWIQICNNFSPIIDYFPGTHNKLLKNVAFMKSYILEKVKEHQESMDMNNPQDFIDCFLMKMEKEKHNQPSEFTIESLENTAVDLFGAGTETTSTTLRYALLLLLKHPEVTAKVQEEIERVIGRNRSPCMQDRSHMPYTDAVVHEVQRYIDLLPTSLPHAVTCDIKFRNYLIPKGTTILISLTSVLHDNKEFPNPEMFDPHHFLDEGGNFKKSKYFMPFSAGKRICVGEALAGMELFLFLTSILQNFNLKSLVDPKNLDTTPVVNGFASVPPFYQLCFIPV
Cytochrome P450 2D6, sequence (P10635 whole entry): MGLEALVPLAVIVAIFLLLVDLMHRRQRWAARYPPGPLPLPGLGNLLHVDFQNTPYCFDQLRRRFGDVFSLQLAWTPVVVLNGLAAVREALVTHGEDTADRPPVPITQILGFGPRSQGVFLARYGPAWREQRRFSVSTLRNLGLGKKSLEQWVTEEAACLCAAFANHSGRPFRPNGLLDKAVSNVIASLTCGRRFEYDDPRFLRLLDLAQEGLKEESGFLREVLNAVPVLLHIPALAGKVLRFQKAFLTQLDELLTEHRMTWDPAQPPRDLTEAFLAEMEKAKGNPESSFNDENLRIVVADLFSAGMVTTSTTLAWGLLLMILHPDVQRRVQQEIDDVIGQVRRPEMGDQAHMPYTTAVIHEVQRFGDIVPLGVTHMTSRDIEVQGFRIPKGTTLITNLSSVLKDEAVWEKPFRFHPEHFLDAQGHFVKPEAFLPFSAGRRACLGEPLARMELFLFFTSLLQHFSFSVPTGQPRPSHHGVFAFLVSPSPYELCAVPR
Genome polyprotein, sequence (P29990 2492-3391 limits assumed): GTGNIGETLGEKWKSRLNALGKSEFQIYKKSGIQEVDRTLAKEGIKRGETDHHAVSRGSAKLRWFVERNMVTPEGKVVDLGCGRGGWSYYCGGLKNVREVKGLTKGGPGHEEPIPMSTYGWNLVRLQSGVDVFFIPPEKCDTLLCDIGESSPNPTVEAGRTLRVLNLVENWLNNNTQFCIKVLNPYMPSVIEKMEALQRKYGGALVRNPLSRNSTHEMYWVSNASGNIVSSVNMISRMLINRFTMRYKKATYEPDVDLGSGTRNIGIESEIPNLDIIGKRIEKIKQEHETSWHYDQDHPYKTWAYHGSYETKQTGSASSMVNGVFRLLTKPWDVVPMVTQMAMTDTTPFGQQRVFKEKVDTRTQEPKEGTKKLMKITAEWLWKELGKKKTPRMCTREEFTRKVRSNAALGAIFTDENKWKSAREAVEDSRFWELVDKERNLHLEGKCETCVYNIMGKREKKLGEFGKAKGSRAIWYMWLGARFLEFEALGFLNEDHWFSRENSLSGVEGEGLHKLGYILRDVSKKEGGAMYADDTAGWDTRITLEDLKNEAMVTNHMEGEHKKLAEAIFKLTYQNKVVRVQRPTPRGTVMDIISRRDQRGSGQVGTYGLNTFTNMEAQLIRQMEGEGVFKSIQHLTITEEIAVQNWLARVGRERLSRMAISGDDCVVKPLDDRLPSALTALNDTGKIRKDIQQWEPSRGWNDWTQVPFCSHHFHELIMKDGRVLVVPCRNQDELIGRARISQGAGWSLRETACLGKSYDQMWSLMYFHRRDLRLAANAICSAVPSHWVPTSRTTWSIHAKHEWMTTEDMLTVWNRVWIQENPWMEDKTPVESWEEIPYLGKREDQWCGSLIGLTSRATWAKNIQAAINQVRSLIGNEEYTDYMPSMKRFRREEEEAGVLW
Luciferin 4-monooxygenase, sequence (P08659 whole entry): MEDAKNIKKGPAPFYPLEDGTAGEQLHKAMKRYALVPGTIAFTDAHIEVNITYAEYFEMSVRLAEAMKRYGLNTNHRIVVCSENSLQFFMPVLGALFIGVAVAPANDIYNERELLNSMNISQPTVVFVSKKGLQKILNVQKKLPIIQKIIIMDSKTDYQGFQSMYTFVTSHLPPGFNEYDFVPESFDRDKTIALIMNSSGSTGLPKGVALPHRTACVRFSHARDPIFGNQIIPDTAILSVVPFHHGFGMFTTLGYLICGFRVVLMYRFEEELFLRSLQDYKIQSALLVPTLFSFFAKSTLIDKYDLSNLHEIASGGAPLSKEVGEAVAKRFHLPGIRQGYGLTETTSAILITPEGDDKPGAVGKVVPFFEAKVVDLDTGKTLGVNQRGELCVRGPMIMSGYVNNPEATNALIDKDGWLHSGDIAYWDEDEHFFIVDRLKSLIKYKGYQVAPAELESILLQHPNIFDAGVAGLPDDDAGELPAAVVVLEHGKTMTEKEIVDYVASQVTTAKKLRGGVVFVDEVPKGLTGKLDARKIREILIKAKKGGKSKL

As to `Cc1cccc(C)c1NC(=O)Cc1cccs1`, the IC50 in series [1] was > 47.1 µM (inactive). The EC50 in series [2] is > 53 µM (inactive).
As for `c1csc(-c2nc3nc4ccccc4nc3n2Cc2ccc3c(c2)OCO3)c1`, the EC50 is 45.5 µM (active) in [3] and 48.7 µM (active) in [4].
In the case of `Cc1ncsc1C(=O)N1CCCC(C(=O)c2ccc3ccccc3c2)C1` (stereo not given), the IC50 in [1] is > 47.1 µM (inactive). Further, the EC50 in series [2] was > 53 µM (inactive).
`COc1cccc2c1C(=O)c1c(O)c3c(c(O)c1C2=O)C[C@](O)(C(=O)CO)CC3OC1CC(N)C(OC2CCCCO2)C(C)O1` (stereo not given in full): the GI50 in series [5] was 3.14 µM (inactive); in [6], < 0.01 µM (active); in series [7] it was < 0.01 µM (active).
With `Cc1ccn2c(NC3CCCC3)c(-c3ccccn3)nc2c1`, the EC50 was 13.3 µM (active) in [8], 2.06 µM (active) in [9], 3.14 µM (active) in [10] and > 60 µM (not active) in series [14]. Moreover, in [11], the IC50 is 4.71 µM (active). For the same molecule, the CC50 in [12] is 10.1 µM (active); in [13], 17.5 µM (active).
In the case of `Nc1ncnc2c(C3OC(CO)C(O)C3O)n[nH]c12` (stereo not given), the GI50 is 5.6 µM (inactive) in series [5], 10.2 µM (inactive) in series [6] and 0.176 µM (active) in series [7].
As for `NC(=O)NO` [HYDROXYUREA], the GI50 was 59.3 µM (inactive) in series [5], 69.8 µM (inactive) in series [6] and 173 µM (inactive) in series [7].
Regarding `O=c1[nH]c2ccc(Cl)cc2[nH]1`, the IC50 in [1] was > 47.1 µM (inactive). In series [2], the EC50 was > 53 µM (inactive).
Take `CC(Sc1nc(-c2ccccc2)cc(C(F)(F)F)n1)C(=O)Nc1ccc2c(c1)OCO2` (stereo not given): the EC50 is 24.6 µM (active) in [3] and 19.3 µM (active) in [4].
As to `COc1ccc(/C=C\c2cc(OC)c(OC)c(OC)c2)c(O)c1O` [COMBRETASTATIN A-1], the figures for the GI50 in [5], in series [6] and in series [7] were 0.139 µM (active), 0.0525 µM (active) and 0.05 µM (active), respectively.
In the case of `O=C(O)CN1C(=O)/C(=C\c2cccc(OCc3ccc(Cl)cc3)c2)SC1=S`, the IC50 in series [15] is 39.5 µM (active).
`COc1ccccc1NC(=O)CNC(=O)CC12CC3CC(CC(C3)C1)C2`: the IC50 in series [16] is > 20 µM (inactive).
As to `O=C(O)Cc1cccc2c(=O)cc(-c3ccccc3)oc12` [MITOFLAXONE], the GI50 is > 79.3 µM (inactive) in series [5], 93.8 µM (inactive) in series [6] and > 250 µM (inactive) in series [7].
Take `CN(C(=O)Cn1nnc(-c2cccc(C(F)(F)F)c2)n1)C1CCCCC1`: the EC50 in [17] and in series [18] was > 112 µM (not active) in each case. Moreover, the AC50 entry in series [19] is “inconclusive”.
Consider `c1ccc(C[C@H]2CN=C(Nc3ccccc3)N2CCCC2CCCCC2)cc1`, for which, in [16], the IC50 is > 20 µM (inactive).
`O=C1NC2(CCCCC2)C(=O)N1CCN(CCCl)CCCl` [SPIROMUSTINE]: the GI50 in series [5] was 29.6 µM (inactive); in series [6] it was 30.2 µM (inactive); in series [7], 132 µM (inactive).
As to `C[C@H](NC(=O)c1[nH]cnc1C(=O)Nc1ccccc1)C(=O)OC(C)(C)C`, the IC50 in series [11] is 8.07 µM (active). The CC50 in series [12] was > 20 µM (active); in series [13] it was > 40 µM (active).
As to `CN(C)CCCNC(=O)C[C@H]1C[C@H](C(=O)N2CCOCC2)[C@@]2(C)c3[nH]c4ccc(Cl)cc4c3CCN2C1=O`, the IC50 in series [1] was > 47.1 µM (inactive). In addition, the EC50 in [2] was > 53 µM (inactive).
With `C(=N/NC1=NCCN1)/c1c2ccccc2c(/C=N\NC2=NCCN2)c2ccccc12`, the GI50 in series [5] was 14.6 µM (inactive); in series [6], 0.000861 µM (active); in [7], 0.0284 µM (active).
As to `CNC(=O)c1ccccc1NC(=O)c1cccc(S(=O)(=O)N2CCC(C)CC2)c1`, in series [16], the IC50 is > 20 µM (inactive).
In the case of `NC1=NC(c2ccccc2)CC(c2cc(Cl)cc(Br)c2O)=N1` (stereo not given), the GI50 in series [5] was 3.87 µM (inactive); in series [6] it was 2.9 µM (inactive); in series [7], 13.6 µM (inactive).
`CCc1ccc(NC(=O)CSc2nc3cc(C(=O)OC)ccc3c(=O)n2CC2CCCO2)cc1` (stereo not given): the EC50 in series [3] is 25.2 µM (active); in series [4], 27.4 µM (active).
For the molecule `CC(C)Cn1cc(C(=O)N2CCC(C)CC2)c2c3ccccc3n(C)c2c1=O`, the IC50 in series [1] is > 47.1 µM (inactive). In series [2], the EC50 was > 53 µM (inactive).
Regarding `Clc1ccc2c(N/N=C/c3ccc(Br)cc3)ccnc2c1`, the EC50 is 3.89 µM (active) in series [8], 9.32 µM (active) in series [3], 2.54 µM (active) in series [10] and 15.5 µM (active) in [4]. Besides, in [20], the AC50 is 3.79 µM (active).
Consider `CN(CC(=O)Nc1cccc2c1CCCC2)S(=O)(=O)c1ccc(Br)cc1`, for which the AC50 in [21] was 10 µM (inconclusive); in [22], 3.16 µM (inconclusive); in [19], “inconclusive”.
Take `CCC1=CC2CN3CCc4c([nH]c5ccccc45)C(C(=O)OC)(C2)C13` (stereo not given): the GI50 in series [5] was 30.1 µM (inactive); in [6] it was 21 µM (inactive); in [7], 17.7 µM (inactive).
On to `Cc1ccccc1CN1C(=O)C(O)(CC(=O)c2ccncc2)c2ccccc21` (stereo not given), for which the values for the EC50 in series [3] and in series [4] were 9.54 µM (active) and 7.98 µM (active), respectively.

(Values after ChEMBL document CHEMBL1201862, “PubChem BioAssay data set” (2004).)
